From US20250368683A1, “METHOD FOR TREATING OR PREVENTING BRONCHIAL ALLERGIC DISEASES WITH PEPTIDE COMPOSITION” (Greenyn Biotechnology Co., Ltd, priority 2024, published 2025)

Columns and labels:
Type in all cases: cell-based, mouse
[1] = test system: IL-4; experiment: Cell test: IL-4 secretion by P815 cells stimulated with compound 48/80 (ELISA); parameters: unit not given here; details: 20 minutes pre-incubation with polypeptide, then compound 48/80, total 6 hours, supernatant ELISA
Experimental: (§1) In this example, the cell line used was the P815 mouse mastocytoma cell line, and the allergen was compound 48/80. To start with, each of the polypeptides represented by SEQ ID No. 1-10 was co-cultured with the P815 cells for 20 minutes, was then added with compound 48/80, and then continued co-culturing for a total of 6 hours. When the culturing process was completed, the supernatants were collected, and the amounts of IL-4 and IL-13 secretions were analyzed by enzyme-linked immunosorbent assay (ELISA), with the results shown in FIG. 1 and Table 2.

[2] = test system: IL-13; experiment: Cell test: IL-13 secretion by P815 cells stimulated with compound 48/80 (ELISA); parameters: IL-13 inhibitory activity: unit not given here; details: for IL-13 inhibitory activity: 20 minutes pre-incubation with polypeptide, then compound 48/80, total 6 hours, supernatant ELISA; for IL-13 inhibitory activity (in words): compound 48/80
Experimental: as §1

[3] = test system: Th2 pathway; experiment: Cell test: overall inhibitory activity on the Th2 pathway (IL-4 and IL-13, P815 cells); details: all in all, from IL-4 and IL-13 results in P815 cells
Experimental: as §1
It can be known from the results in FIG. 1 and Table 2 that the polypeptides represented by SEQ ID No. 1-10 had IL-4 inhibitory activity; that the polypeptides represented by SEQ ID NO.

Sequence	IL-4 inhibitory activity [1]	IL-13 inhibitory activity [2]	IL-13 inhibitory activity (in words) [2]	inhibitory activity on the Th2 pathway (in words) [3]
IGVDEHYTPI [SEQ ID No. 10]	−7.2	0.0	–	–
SMNLSLVLQVV [SEQ ID No. 4]	−32.9	−21.4	had IL-13 inhibitory activity	relatively good inhibitory activity
INFVTEEDKR [SEQ ID No. 1]	−25.2	0.0	–	–
VRYLEWSNIESIIA [SEQ ID No. 6]	−22.2	−60.7	–	relatively good inhibitory activity
RLTDYFTID [SEQ ID No. 3]	−8.9	0.0	–	–
GHCGCSSG [SEQ ID No. 8]	−38.5	0.0	–	relatively good inhibitory activity
NFIVTGLQDIM [SEQ ID No. 9]	−11.5	−57.1	had IL-13 inhibitory activity	relatively good inhibitory activity
LVGTDVATAQAP [SEQ ID No. 7]	−23.9	0.0	–	–
LGVTNINISDP [SEQ ID No. 2]	−16.0	0.0	–	–
ALYPLLTTLTD [SEQ ID No. 5]	−13.1	−71.4	had IL-13 inhibitory activity	–
